Reference: patent publication US9868736B2, “Deubiquitinase inhibitors and methods for use of the same” (THE REGENTS OF THE UNIVERSITY OF MICHIGAN, priority 2013, dated 2018)
In brackets after ≈: the same amount, converted by molar mass. Entries after “also recorded” stand apart in the source; their conditions may differ.

Experiments:
Usp5 = target: T1, Usp5 (Homo sapiens, UniProt P45974); assay: DUB activity (HA-Ub labelling) in treated cells; assay type: cell-based
T1 construct: endogenous in cells; host or cells: A375 and A375R melanoma cells (also SK-Mel28)
T1 sequence (P45974 1-858): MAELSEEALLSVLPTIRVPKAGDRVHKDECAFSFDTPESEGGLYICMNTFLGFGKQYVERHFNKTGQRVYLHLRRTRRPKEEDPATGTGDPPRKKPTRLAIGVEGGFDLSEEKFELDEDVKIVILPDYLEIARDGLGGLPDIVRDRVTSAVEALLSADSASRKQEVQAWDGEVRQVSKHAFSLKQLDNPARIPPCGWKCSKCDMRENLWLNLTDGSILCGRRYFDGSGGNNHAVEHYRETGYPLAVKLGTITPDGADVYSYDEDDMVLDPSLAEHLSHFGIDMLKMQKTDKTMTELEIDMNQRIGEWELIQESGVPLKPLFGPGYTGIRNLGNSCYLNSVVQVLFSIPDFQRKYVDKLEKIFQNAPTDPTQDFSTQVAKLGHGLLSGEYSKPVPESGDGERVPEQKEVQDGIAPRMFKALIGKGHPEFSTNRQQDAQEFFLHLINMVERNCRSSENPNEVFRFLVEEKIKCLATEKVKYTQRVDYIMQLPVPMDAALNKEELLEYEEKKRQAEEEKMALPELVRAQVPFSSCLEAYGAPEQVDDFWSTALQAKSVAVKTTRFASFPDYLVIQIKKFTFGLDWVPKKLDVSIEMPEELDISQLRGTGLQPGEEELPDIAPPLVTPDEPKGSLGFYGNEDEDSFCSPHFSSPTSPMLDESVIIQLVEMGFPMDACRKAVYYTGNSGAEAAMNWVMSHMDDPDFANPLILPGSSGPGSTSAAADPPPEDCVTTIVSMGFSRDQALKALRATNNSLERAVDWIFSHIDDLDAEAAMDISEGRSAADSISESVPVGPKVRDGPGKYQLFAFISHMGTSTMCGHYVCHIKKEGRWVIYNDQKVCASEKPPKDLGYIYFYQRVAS
Protocol: DUB activity was assessed by HA blotting and confirmed by monitoring a DUBs mobility shift due to its covalent modification with HA-Ub. DUB inhibition was detected in vemurafenib-responsive (SK-Mel28 and A375) cells and we noted a consistent change in a DUB (100 kDa) identified as Usp5 by LC/MS/MS of the excised protein band (data not shown) and direct immunoblotting. […] DUB activity was also compared in control and BRAF knockdown (KD) cells. BRAF shRNA reduced pERK levels and Usp5 activity.
(§1) Similar results were obtained in A375R Usp5 KD cells treated with a MEK inhibitor.

A375 tumors = assay: A375 melanoma tumor growth in NSG mice; assay type: in vivo
Protocol: G9 suppresses Usp9x activity in A375 melanoma cells. The effect of G9 on the growth of A375 tumors in NSG mice was examined. Two million A375 cells in Matrigel: cell culture media (1:1) in 0.1 mL were injected subcutaneously in the dorsal region of 9 female NSG mice. After tumor growth to a measurable level (2 weeks post inoculation) animals were separated into 3 groups and mice received 0, 7.5 or 15 mg/kg G9 (prepared as described above) daily by IP injection for 8 days. Tumor volume (left) and animal weight (right) were measured every other day throughout the treatment interval and are reported in FIG. 6. […] Three animals per treatment group were evaluated in this study. Each data point represents the average+/−S.D. of measurements made in three mice. P-values were calculated using GraphPad Instat. P-values<0.05 are considered significant.
A375 tumors grown as subcutaneous implants in NSG mice were separated into three groups and received once daily ip injections with vehicle control (PEG300/DMSO) or G9 at doses of 7.5 or 15 mg/kg. Tumor growth, animal weight, behavior and mobility were monitored during treatment.

[1] = test system: vemurafenib sensitive and resistant A375 melanoma cells; assay: in vitro anti-tumor efficacy in A375 melanoma cells; assay type: cell-based; settings: Homo sapiens, A-375
Text: as §1

MM1.S tumor = MM1.S tumor growth in NSG mice; assay type: in vivo, NOD/SCID/gamma-2 knockout mice (NSG)
Protocol: Ten million MM1.S tumor cells were injected into the dorsal region of twenty female NOD/SCID/gamma-2 knockout mice (NSG) weighing ˜20 grams each. After 3 weeks tumors became visible and measurable with calipers. Mice were separated into four groups of 5 mice each and IP injected with G9 dissolved in 55% dimethyl sulfoxide, 25% polyethylene glycol 300, 20% phosphate-buffered saline at dose levels of 0, 2.5, 5 and 10 mg/kg mouse body weight. Animals were injected once per day for 14 days and tumor growth (measured with calipers) and animal weight were monitored over the treatment interval. The resulting changes in tumor growth for each group are shown and represented as the average+/−standard error of the mean for each group. The p-values were calculated using GraphPad InStat. P-values lower than 0.05 are considered significant. […] Animal weight was not affected by G9 injection in any of the mice. […] Twenty female NSG mice were inoculated subcutaneously with 10 million MM1.S cells in Matrigel and cell culture media (1:1) in a total volume of 0.1 mL. When tumors were measurable with calibers (3 weeks post tumor cell injection), mice were divided into 4 groups of five mice each and treated with the dose of G9 indicated. Tumor growth (left) and animal weight (right) were recorded at the interval noted. The results represent the average+/−SD of 5 animals per data point. P-values <0.05 are considered significant and were calculated using GraphPad InStat.
A second animal study was conducted in NSG mice with mice receiving higher dose levels of G9. Tumor inoculation and compound administration were similar to those utilized in the lower dose study. However, 3 mice per treatment group were used in this study and additional G9 doses were tested for safety and efficacy. […] NSG mice were inoculated with MM1.S tumors as described in FIG. 7. When tumors were measurable with calipers, mice were placed into 5 groups of 3 mice each and treated with G9 at 0, 5, 10, 15 and 20 mg/kg for 12 days with daily injection. Tumor size (left) and animal weight (right) were recorded over the treatment interval. […] The result of G9 treatment is also depicted as tumor volume over time for each treatment group (FIG. 4—top). Tumors extracted from each of the three mice in each treatment group following the last injection were photographed and shown in FIG. 4 (bottom). […] Control and treated mouse tumor sizes are shown on the left. Bars from left to right in each treatment group represent tumor size after 0, 4, 6, 8 and 11 days of treatment. Each bar represents the average+/−S.D. of measurements made in 3 mice per group. The significance of change in tumor volume between treated and control mice was calculated using GraphPad InStat. P-values<0.05 are considered significant. On the bottom, tumors were extracted from control and treated mice and photographed. Each row illustrates tumor from each of the three mice in the treatment group noted on the top of each row.

aqueous solubility = assay type: physicochemical
[2] = 7.5 or 15 mg/kg daily IP for 8 days

## CCCC(NC(=O)/C(C#N)=C/c1nc(Cl)ccc1Cl)c1ccc(OCCN2CCOCC2)cc1 (centres unmarked) [Compound G9, (E)-2-Cyano-3-(3,6-dichloropyridin-2-yl)-N-(1-(4-(2-morpholinoethoxy)phenyl)butyl)acrylamide]
Usp5; myeloma (MM1.S) cells, various concentrations, FIG. 10
  Usp5 inhibition: inhibits Usp9x and Usp5
Usp5; vemurafenib sensitive and resistant A375 cells
  Usp5 activity: reduced Usp5 (and Usp9x) activity in both cell types
A375 tumors; 7.5 or 15 mg/kg daily IP
  side effects: behavior and mobility: did not observe changes in behavior or mobility; also recorded: did not have any notable side effects
A375 tumors; [2]
  A375 tumor growth: suppressed A375 tumor growth; also recorded: completely suppressed tumor growth; also recorded: reduced tumor growth
  animal weight: modest impact on animal weight; also recorded: not significantly different
[1]
  IC50: 1 µM
MM1.S tumor; IP once per day for 14 days, 2.5, 5 and 10 mg/kg
  animal weight: not affected
MM1.S tumor; IP once per day for 14 days, 2.5, 5 and 10 mg/kg (all doses)
  MM1.S tumor growth: reduced MM1.S tumor growth
MM1.S tumor; IP once per day for 14 days, 5 and 10 mg/kg
  MM1.S tumor growth compared to controls: significant reduction in MM1.S tumor growth
MM1.S tumor; daily injection for 12 days, 5, 10, 15 and 20 mg/kg (all doses)
  MM1.S tumor growth: suppressed MM1.S tumor growth
MM1.S tumor; daily injection for 12 days, 10-20 mg/kg
  animal weight: some weight loss
MM1.S tumor; daily injection for 12 days, 15 and 20 mg/kg
  MM1.S tumor size: tumor regression
Aqueous solubility
  solubility compared with earlier inhibitor: improved solubility
Aqueous solubility; aqueous medium (not specified further)
  solubility: 19.8 µM (≈ 9.97 µg/mL)
